{"source": "paper PMC8481833", "about": "“Kinetic Characterization and Inhibitor Screening of Pyruvate Kinase I From Babesia microti” (Frontiers in Microbiology, 2021)", "key": {"rBmPYKI": {"biological_target": "rBmPYKI (Babesia microti, UniProt A0A1N6LXR4)", "assay": "biochemical", "type": "biochemical"}, "trypanosomes": {"test_system": "trypanosomes", "set-up": "method as in Worku et al., 2015", "conditions": "net ATP depletion by inhibiting PYK; ref Worku et al., 2015; cited from earlier work"}, "rBmLDH": {"biological_target": "rBmLDH (Babesia microti, UniProt I7J7V6)", "sequence (I7J7V6 1-332)": "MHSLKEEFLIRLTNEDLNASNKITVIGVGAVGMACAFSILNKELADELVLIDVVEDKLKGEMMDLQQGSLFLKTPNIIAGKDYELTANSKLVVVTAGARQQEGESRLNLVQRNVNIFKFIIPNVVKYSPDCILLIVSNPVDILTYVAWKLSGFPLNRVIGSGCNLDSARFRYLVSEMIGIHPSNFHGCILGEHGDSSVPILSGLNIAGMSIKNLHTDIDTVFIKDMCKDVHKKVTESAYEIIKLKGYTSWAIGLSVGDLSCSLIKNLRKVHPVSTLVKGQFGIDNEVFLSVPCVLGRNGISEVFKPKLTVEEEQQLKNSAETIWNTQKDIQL", "assay": "biochemical", "type": "biochemical"}, "B. microti [1]": {"test_system": "B. microti", "assay": "Growth inhibition of Babesia microti by in vitro culture", "type": "cell-based", "conditions": "72 h", "experimental": "Infected mouse blood was collected and centrifuged at 845 × g for 5 min, and the infected mouse RBCs was isolated. The RBCs infected by B. microti were diluted to 5% with uninfected mouse and human RBCs (10:1). […] Drug-free wells were set up as blank control. All treatments were carried out in triplicate. After 72 h of incubation, parasitemia was examined by Giemsa staining under a microscope."}, "B. microti [2]": {"test_system": "B. microti", "assay": "Rescue assay of tannic acid (pyruvate or ATP added)", "type": "cell-based, Babesia microti", "conditions": "for effect of addition of ATP on the inhibitory effect: 2 mM ATP; for effect of addition of ATP on the inhibitory effect / effect of addition of pyruvate on the inhibitory effect / inhibition of B. microti as compared with DMSO: tannic acid 1 μM, DA about 10 μM; for effect of addition of pyruvate on the inhibitory effect: 2 mM pyruvic acid", "experimental": "MilliporeSigma) was used as the positive control, and DMSO was used as the negative control because tannic acid was diluted in DMSO. The group only containing medium without any treatment was used as the blank control. Each test was performed in triplicate."}, "[3]": {"substrate": "Nc1ncnc2c1ncn2[C@@H]1O[C@H](COP(=O)(O)OP(=O)(O)O)[C@@H](O)[C@H]1O", "assay": "Indirect coupled LDH assay following NADH decrease at 340 nm, pH 7.0, 37 °C, 50 mM MgCl2, 20 mM KCl, ADP varied 0.05-2.0 mM at saturating 7 mM PEP, no FBP.", "type": "biochemical", "experimental": "(§1) To determine the enzymatic activity of purified rBmPYKI, the GST tag was removed from the recombinant protein; and the indirect coupled lactate dehydrogenase (LDH) assay was applied. Recombinant B. microti LDH (rBmLDH) protein, the only one isoform in B. microti, was expressed and purified according to previously published protocol ([Yu et al., 2019]). The standard enzyme kinetic assay was conducted by monitoring the decrease in NADH at a wavelength of 340 nm using a microplate reader (BioTek, Winooski, VT, United States). One unit of the PYK activity here was defined as 1 μmol of NADH oxidized per minute at 37°C. The samples were continuously measured at 2, 7, 12, 17, 22, and 27 min. […] The initial velocity for the rate of […] of NADH in the first 5 min was calculated, and the relative percentage activity was determined. The kinetic parameters for PEP (at 0.5, 1, 2, 3, 4, and 5 mM) under saturating ADP conditions (3 mM) were determined. […]\nStatistical analysis was conducted with GraphPad Prism 7.0 (GraphPad Software, La Jolla, CA, United States). Statistical significance was evaluated by one-way ANOVA; and all data were presented as the mean ± standard deviation (SD) from at least three independent experiments performed in duplicate. […]"}, "[4]": {"substrate": "C=C(OP(=O)(O)O)C(=O)O", "assay": "Enzyme kinetics of rBmPYKI on substrates PEP and ADP", "type": "biochemical, Babesia microti", "conditions": "other: substrate of rBmPYKI; other substrate saturating; pH 7.0; 37.0 °C", "experimental": "as §1, with “min. To determine the effects of pH and the concentration of Mg^2+ and K^+ on rBmPYKI, the assay was performed in the pH range of 5.5–8.5, and the Mg^2+ and K^+ concentrations ranged from 0 to 200 mM (0, 25, 50, 75, 100, 125, 150, 175, and 200 mM).” for “min.”"}}, "note": "Values joined by “and” are separate entries in the source; they are usually repeats but may differ in a detail not shown here. Equal values may be shown once. “Also recorded” adds a separate entry of the source. Read-outs that look alike come from different tables or passages of the source."}
{"molecule": "CN(CCOc1ccc(CC2SC(=O)NC2=O)cc1)c1ccccn1", "note": "(stereo not shown) [Rosiglitazone]", "values": [{"measurement": "effect on the activity of rBmPYKI", "setting": "rBmPYKI", "value": "significantly inhibit; also recorded: significantly reduce"}, {"measurement": "IC50", "setting": "rBmPYKI; read-out: IC50 rBmPYKI", "value": 6.89, "unit": "µM"}]}
{"molecule": "CCOC(=O)C(C)=O", "note": "[Ethyl pyruvate]", "values": [{"measurement": "time of exposure to kill trypanosomes", "setting": "trypanosomes", "value": "≤ 3", "unit": "h"}]}
{"molecule": "COc1c(O)cc(O)c2c(=O)cc(-c3ccccc3)oc12", "note": "[Wogonin]", "values": [{"measurement": "IC50", "setting": "rBmLDH", "value": 143, "unit": "µM"}, {"measurement": "effect on rBmLDH / LDH reaction activity", "setting": "rBmLDH", "value": "obvious inhibitory effect"}, {"measurement": "IC50", "setting": "rBmPYKI", "value": 185, "unit": "µM"}]}
{"molecule": "CCc1ccc(CCOc2ccc(CC3SC(=O)NC3=O)cc2)nc1", "note": "(stereo not shown) [Pioglitazone]", "values": [{"measurement": "effect on rBmLDH / LDH reaction activity", "setting": "rBmLDH", "value": "did not affect"}, {"measurement": "IC50", "setting": "rBmLDH; read-out: IC50 rBmLDH", "value": "> 1950", "unit": "µM"}, {"measurement": "IC50", "setting": "rBmPYKI", "value": 44, "unit": "µM"}, {"measurement": "effect on the activity of rBmPYKI", "setting": "rBmPYKI", "value": "significantly inhibit"}, {"measurement": "effect on the growth of B. microti", "setting": "B. microti [1]; in vitro culture", "value": "no significant effect"}]}
{"molecule": "OC[C@H]1O[C@@H](Oc2cc(O)cc(/C=C/c3ccc(O)cc3)c2)[C@H](O)[C@@H](O)[C@@H]1O", "note": "[Polydatin]", "values": [{"measurement": "IC50", "setting": "rBmLDH", "value": 142, "unit": "µM"}, {"measurement": "effect on rBmLDH / LDH reaction activity", "setting": "rBmLDH", "value": "obvious inhibitory effect"}, {"measurement": "IC50", "setting": "rBmPYKI", "value": 92.9, "unit": "µM"}]}
{"molecule": "O=c1cc(-c2ccccc2)oc2ccc(O)cc12", "note": "[6-Hydroxyflavone]", "values": [{"measurement": "effect on rBmLDH / LDH reaction activity", "setting": "rBmLDH", "value": "obvious inhibitory effect"}, {"measurement": "IC50", "setting": "rBmLDH; read-out: IC50 rBmLDH", "value": 828, "unit": "µM"}, {"measurement": "IC50", "setting": "rBmPYKI; read-out: IC50 rBmPYKI", "value": 390, "unit": "µM"}]}
{"molecule": "Tannic acid", "values": [{"measurement": "CC50", "setting": "Vero cells", "value": "53 ± 2.8", "unit": "µM"}, {"measurement": "CC50", "setting": "HFF cells", "value": "36.5 ± 4.75", "unit": "µM"}, {"measurement": "IC50", "setting": "rBmLDH; read-out: IC50 rBmLDH", "value": 23.6, "unit": "µM"}, {"measurement": "effect on the activity of rBmPYKI", "setting": "rBmPYKI", "value": "significantly inhibit; also recorded: significantly reduce"}, {"measurement": "inhibition of the activity of rBmPYKI", "setting": "rBmPYKI; 3 µM", "value": "more than 90%"}, {"measurement": "IC50", "setting": "rBmPYKI; read-out: IC50 rBmPYKI", "value": "0.5 µM and 0.49 µM"}, {"measurement": "inhibition rate of B. microti growth", "setting": "B. microti [1]; 20 μM", "value": 80, "unit": "%"}, {"measurement": "IC50", "setting": "B. microti [1]; in vitro culture, parasitemia by Giemsa staining, read-out: IC50 B. microti", "value": 0.77, "unit": "µM"}, {"measurement": "inhibition of B. microti growth", "setting": "B. microti [2]; 1 μM, concentration used in rescue assay", "value": 70, "unit": "%"}, {"measurement": "effect of addition of ATP on the inhibitory effect", "setting": "B. microti [2]", "value": "did not affect"}, {"measurement": "effect of addition of pyruvate on the inhibitory effect", "setting": "B. microti [2]", "value": "rescue"}, {"measurement": "microscopy observation of inhibited parasites", "setting": "B. microti [2]; Giemsa staining", "value": "mostly located outside RBCs"}, {"measurement": "inhibition of B. microti as compared with DMSO", "setting": "B. microti [2]", "value": "significantly inhibit"}]}
{"molecule": "CC(=O)NCC(=O)O.CC(=O)NCC(=O)O.N=C(N)c1ccc(N=NNc2ccc(C(=N)N)cc2)cc1", "note": "[DA, diminazene aceturate]", "values": [{"measurement": "effect of addition of ATP on the inhibitory effect", "setting": "B. microti [2]", "value": "did not affect"}, {"measurement": "effect of addition of pyruvate on the inhibitory effect", "setting": "B. microti [2]", "value": "no effect"}, {"measurement": "inhibition of B. microti as compared with DMSO", "setting": "B. microti [2]", "value": "significantly inhibit"}]}
{"molecule": "rBmPYKI (Babesia microti strain RI) (protein, recombinant, pGEX-6p-1, E. coli BL21, GST tag removed by 3C protease, 54 kDa) MNRIIKAVPDDEISKKLTKIVCTIGPASANVDKIVAMIKSGMNVCRFNFSHGTHETHYETMKLVKEAMKQVPGKHIALMIDTKGPEIRTGKLAQGDYIQLTAGQTVKITSDQSVLCTNEIISITYEHLTSSVKPGNIILMADGTISFKVISVEKDYVVGEVMNSARLSNRKNVNLPGVKVNIPVIGEKDKKDILEFGVAHNMDYIAVSFVQSANDILSVKKLIGHNSNLKIISKIENVEGLINFDEILEVSDGIMIARGDLGMEIPSEKVFIAQKMMIYKCNIAGKPVITATQMLESMIVNPRPTRAEVTDVANAVLDGSDCVMLSGETANGAFSVECVRLMSHICLEAESCTDHMSVYLNLLKAIPTPVTTQEAIVRCSVGAIYSVNASCIIALTETGKTASLLAKYKPNQLIIAICNNENVAAGLALNRGVVPIMVDSFIDSDANINHAIEFAKKNNIVVEGSTVLAVHGMVSCAPGNTDMLKILNV", "values": [{"measurement": "Km", "setting": "[3]", "value": "388 ± 87", "unit": "µM"}, {"measurement": "Vmax", "setting": "[3]", "value": 242, "unit": "µmol/min/mg"}, {"measurement": "Km", "setting": "[4]", "value": "655 ± 117", "unit": "µM"}, {"measurement": "Vmax", "setting": "[4]", "value": 250, "unit": "µmol/min/mg"}]}
